Type in all cases: functional
Experiment [1] concerns Helicoverpa assulta. Briefly: Insecticidal activity against sixth-instar larvae of Helicoverpa assulta FJ1 at 21 to 3390 mg/l after 48 hr by chi-squared analysis.
The test system of experiment [2] is Helicoverpa assulta. Briefly: Insecticidal activity against sixth-instar larvae of Helicoverpa assulta GZ5 at 21 to 3390 mg/l after 48 hr by chi-squared analysis.
The test system of experiment [3] is Helicoverpa assulta. Briefly: Insecticidal activity against sixth-instar larvae of Helicoverpa assulta GZ2 at 21 to 3390 mg/l after 48 hr by chi-squared analysis.
For experiment [4], the system named is Helicoverpa assulta. Kind of experiment: Resistance factor, ratio of LD50 for sixth-instar larvae of Helicoverpa assulta FJ2 to LD50 for sixth-instar larvae of Helicoverpa assulta at 21 to 3390 mg/l.
For experiment [5], the system named is Helicoverpa assulta. Kind of experiment: Resistance factor, ratio of LD50 for sixth-instar larvae of Helicoverpa assulta GZ5 to LD50 for sixth-instar larvae of Helicoverpa assulta at 21 to 3390 mg/l.
In experiment [6] the test system is Helicoverpa assulta. Kind of experiment: Resistance factor, ratio of LD50 for sixth-instar larvae of Helicoverpa assulta GZ2 to LD50 for sixth-instar larvae of Helicoverpa assulta at 21 to 3390 mg/l.
For experiment [7], the system named is Helicoverpa assulta. Briefly: Resistance factor, ratio of LD50 for sixth-instar larvae of Helicoverpa assulta YN4 to LD50 for sixth-instar larvae of Helicoverpa assulta at 21 to 3390 mg/l.
Experiment [8] concerns Helicoverpa assulta. Kind of experiment: Resistance factor, ratio of LD50 for sixth-instar larvae of Helicoverpa assulta HB2 to LD50 for sixth-instar larvae of Helicoverpa assulta at 21 to 3390 mg/l.
The subject of experiment [9] is Helicoverpa assulta. Kind of experiment: Insecticidal activity against sixth-instar larvae of Helicoverpa assulta GZ1 at 21 to 3390 mg/l after 48 hr by chi-squared analysis.
Experiment [10] has as its system Helicoverpa assulta. Briefly: Resistance factor, ratio of LD50 for sixth-instar larvae of Helicoverpa assulta FJ1 to LD50 for sixth-instar larvae of Helicoverpa assulta at 1.8 to 183360 mg/l.
In experiment [11] the test system is Helicoverpa assulta. Kind of experiment: Resistance factor, ratio of LD50 for sixth-instar larvae of Helicoverpa assulta SD2 to LD50 for sixth-instar larvae of Helicoverpa assulta at 1.8 to 183360 mg/l.
Experiment [12] has as its system Helicoverpa assulta. Briefly: Resistance factor, ratio of LD50 for sixth-instar larvae of Helicoverpa assulta FJ2 to LD50 for sixth-instar larvae of Helicoverpa assulta at 1.8 to 183360 mg/l.
In experiment [13] the test system is Helicoverpa assulta. Kind of experiment: Resistance factor, ratio of LD50 for sixth-instar larvae of Helicoverpa assulta HN1 to LD50 for sixth-instar larvae of Helicoverpa assulta at 1.8 to 183360 mg/l.
Experiment [14] concerns Helicoverpa assulta. Kind of experiment: Resistance factor, ratio of LD50 for sixth-instar larvae of Helicoverpa assulta GZ2 to LD50 for sixth-instar larvae of Helicoverpa assulta at 1.8 to 183360 mg/l.
For experiment [15], the system named is Helicoverpa assulta. Kind of experiment: Resistance factor, ratio of LD50 for sixth-instar larvae of Helicoverpa assulta YN2 to LD50 for sixth-instar larvae of Helicoverpa assulta at 1.8 to 183360 mg/l.
Experiment [16] has as its system Helicoverpa assulta. Kind of experiment: Insecticidal activity against sixth-instar larvae of Helicoverpa assulta HN2 at 1.8 to 183360 mg/l after 48 hr by chi-squared analysis.
The subject of experiment [17] is Helicoverpa assulta. Kind of experiment: Insecticidal activity against sixth-instar larvae of Helicoverpa assulta GZ3 at 1.8 to 183360 mg/l after 48 hr by chi-squared analysis.
Experiment [18] concerns Helicoverpa assulta. Kind of experiment: Insecticidal activity against sixth-instar larvae of Helicoverpa assulta GZ2 at 1.8 to 183360 mg/l after 48 hr by chi-squared analysis.
Experiment [19] concerns Helicoverpa assulta. Briefly: Insecticidal activity against sixth-instar larvae of Helicoverpa assulta YN7 at 1.8 to 183360 mg/l after 48 hr by chi-squared analysis.
The test system of experiment [20] is Helicoverpa assulta. Kind of experiment: Insecticidal activity against sixth-instar larvae of Helicoverpa assulta HN1 at 1.8 to 183360 mg/l after 48 hr by chi-squared analysis.
In experiment [21] the test system is Helicoverpa assulta. Kind of experiment: Resistance factor, ratio of LD50 for sixth-instar larvae of Helicoverpa assulta YN1 to LD50 for sixth-instar larvae of Helicoverpa assulta at 39 to 12630 mg/l.
Experiment [22] deals with Helicoverpa assulta. Kind of experiment: Resistance factor, ratio of LD50 for sixth-instar larvae of Helicoverpa assulta AH2 to LD50 for sixth-instar larvae of Helicoverpa assulta at 39 to 12630 mg/l.
The test system of experiment [23] is Helicoverpa assulta. Kind of experiment: Resistance factor, ratio of LD50 for sixth-instar larvae of Helicoverpa assulta SD1 to LD50 for sixth-instar larvae of Helicoverpa assulta at 39 to 12630 mg/l.
Experiment [24] has as its system Helicoverpa assulta. Kind of experiment: Resistance factor, ratio of LD50 for sixth-instar larvae of Helicoverpa assulta HN2 to LD50 for sixth-instar larvae of Helicoverpa assulta at 39 to 12630 mg/l.
Experiment [25] relates to Helicoverpa assulta. Kind of experiment: Resistance factor, ratio of LD50 for sixth-instar larvae of Helicoverpa assulta HB1 to LD50 for sixth-instar larvae of Helicoverpa assulta at 39 to 12630 mg/l.
The test system of experiment [26] is Helicoverpa assulta. Briefly: Insecticidal activity against sixth-instar larvae of Helicoverpa assulta YN4 at 39 to 12630 mg/l after 48 hr by chi-squared analysis.
Experiment [27] deals with Helicoverpa assulta. Kind of experiment: Insecticidal activity against sixth-instar larvae of Helicoverpa assulta YN3 at 39 to 12630 mg/l after 48 hr by chi-squared analysis.
The test system of experiment [28] is Helicoverpa assulta. Briefly: Insecticidal activity against sixth-instar larvae of Helicoverpa assulta GZ2 at 39 to 12630 mg/l after 48 hr by chi-squared analysis.
The test system of experiment [29] is Helicoverpa assulta. Briefly: Insecticidal activity against sixth-instar larvae of Helicoverpa assulta GZ3 at 39 to 12630 mg/l after 48 hr by chi-squared analysis.
The subject of experiment [30] is Helicoverpa assulta. Kind of experiment: Insecticidal activity against sixth-instar larvae of Helicoverpa assulta GZ4 at 39 to 12630 mg/l after 48 hr by chi-squared analysis.
Experiment [31] concerns Helicoverpa assulta. Briefly: Insecticidal activity against sixth-instar larvae of Helicoverpa assulta AH2 at 39 to 12630 mg/l after 48 hr by chi-squared analysis.
Experiment [32] deals with Helicoverpa assulta. Briefly: Insecticidal activity against sixth-instar larvae of Helicoverpa assulta GZ5 at 39 to 12630 mg/l after 48 hr by chi-squared analysis.
For experiment [33], the system named is Helicoverpa assulta. Kind of experiment: Insecticidal activity against sixth-instar larvae of Helicoverpa assulta HB2 at 39 to 12630 mg/l after 48 hr by chi-squared analysis.
The subject of experiment [34] is Helicoverpa assulta. Kind of experiment: Resistance factor, ratio of LD50 for sixth-instar larvae of Helicoverpa assulta AH3 to LD50 for sixth-instar larvae of Helicoverpa assulta at 39 to 12630 mg/l.
Experiment [35] has as its system Helicoverpa assulta. Kind of experiment: Resistance factor, ratio of LD50 for sixth-instar larvae of Helicoverpa assulta FJ2 to LD50 for sixth-instar larvae of Helicoverpa assulta at 39 to 12630 mg/l.

Take `CNC(=O)ON=C(C)SC` [METHOMYL]: the LD90 in experiment [1] worked out at 67.8 µg/g; in [2], 64.6 µg/g; in experiment [3] it was 52.6 µg/g; in experiment [9], 131 µg/g. Moreover, the 50% lethal dose (LD50) (commonly the dose at which mortality reaches 50%) was 21.1 mg/kg in experiment [1] (Helicoverpa assulta, FJ1, 48 h); 21 mg/kg in experiment [2] (Helicoverpa assulta, GZ5, 48 h); 20.1 mg/kg in experiment [3] (Helicoverpa assulta, GZ2, 48 h); 41.8 mg/kg in experiment [9] (Helicoverpa assulta, GZ1, 48 h). Moreover, the Ratio came out at 19.9 in experiment [4]; 14.5 in experiment [5]; 13.9 in experiment [6]; 11.5 in [7]; 10.9 in [8].
For `CC(C)C(C(=O)OC(C#N)c1cccc(Oc2ccccc2)c1)c1ccc(Cl)cc1` (configuration not stated) [FENVALERATE], the Ratio in [10] was determined as 9.01; in experiment [11] it was 12; in experiment [12], 12.9; in experiment [13] it was 64.9; in experiment [14], 1042; in experiment [15], 1313. Moreover, the LD90 in experiment [16] was 7.63 µg/g; in [17], 725 µg/g; in experiment [18] it was 558 µg/g; in experiment [19], 507 µg/g; in [20], 23.1 µg/g. For the same molecule, the LD50 in [16] (Helicoverpa assulta, HN2, 48 h) was determined as 1.17 mg/kg; in experiment [17] (Helicoverpa assulta, GZ3, 48 h), 133 mg/kg; in experiment [18] (Helicoverpa assulta, GZ2, 48 h), 169 mg/kg; in experiment [19] (Helicoverpa assulta, YN7, 48 h), 249 mg/kg; in experiment [20] (Helicoverpa assulta, HN1, 48 h), 10.5 mg/kg.
As for `CCOP(=S)(OCC)O/N=C(\C#N)c1ccccc1` [PHOXIM], the Ratio in experiment [21] amounted to 8.72; in [22], 7.13; in experiment [23], 5.09; in experiment [24], 3.51; in experiment [25] it was 3.49; in experiment [34] it was 14.3. The Ratio in [35] is 9.41. The LD90 in experiment [26] is 94 µg/g; in experiment [27] it was 56.4 µg/g; in [28], 101 µg/g; in experiment [29] it was 65.3 µg/g; in experiment [30], 51.7 µg/g; in [31], 33.5 µg/g. Moreover, the LD90 in experiment [32] turned out to be 33.7 µg/g; in experiment [33], 37.4 µg/g. Besides, the 50% lethal dose (LD50) in experiment [26] (Helicoverpa assulta, YN4, 48 h) was 39.6 mg/kg; in experiment [27] (Helicoverpa assulta, YN3, 48 h), 29.2 mg/kg; in [28] (Helicoverpa assulta, GZ2, 48 h), 25.3 mg/kg; in [29] (Helicoverpa assulta, GZ3, 48 h), 20.9 mg/kg; in [30] (Helicoverpa assulta, GZ4, 48 h) it was 18.4 mg/kg; in experiment [31] (Helicoverpa assulta, AH2, 48 h), 16.7 mg/kg. Moreover, the LD50 came out at 16.6 mg/kg in [32] (Helicoverpa assulta, GZ5, 48 h) and 11.8 mg/kg in experiment [33] (Helicoverpa assulta, HB2, 48 h).

The values above are taken from ChEMBL document CHEMBL3046781, “Resistance of Helicoverpa assulta (Guenée) (Lepidoptera: Noctuidae) to fenvalerate, phoxim and methomyl in China” (2009).
